Converted amounts (≈) assume the structure as drawn.
How the values were obtained:
[1] = test system: Pseudomonas aeruginosa PA14 gacS^− biofilms; test: Frequency of SCV cells arising from 24-h biofilms exposed for 18 h; format: cell-based; conditions: for frequency of SCVs (phenotypic variants) among surviving cells, in words: 18 h exposure of 24-h biofilms
Procedure: In an alternative set of experiments, the frequency of SCV cells arising from 24-h biofilms of P. aeruginosa PA14 gacS was evaluated. Antibiotics were diluted from stock solutions into LB broth to obtain final concentrations of […]. These were arranged in triplicate in a micro-titre plate. Biofilms were incubated in these low concentrations of antibacterials for 18 h at 35° C. and 95% relative humidity. Goat and human serum were also assayed in this array, and were kind gifts from The Life and Environmental Sciences Animal Care Facility at the University of Calgary, Department of Biological Sciences. After exposure, biofilms were treated in a manner identical to that described above.
Frequency of phenotypic variation. During the course of susceptibility assays, the proportion of SCV cells recovered from biofilms after exposure to Ag^+ or H2O2 was increased relative to the corresponding growth controls. It was queried whether this may be true for other antimicrobial agents or growth conditions. An array of clinically used antibiotics, saline, and goat and human sera were examined for an ability to select for these SCVs from 24-h biofilms of P. aeruginosa PA14 gacS. Biofilms were exposed to these agents for 18 h and each assay was performed in triplicate. Viable cell counts were determined for each exposure condition, and log-survival was determined. The proportion of SCV cells in bacterial populations recovered from these exposure conditions was calculated as the mean of the proportions from each individual trial.

[2] = test system: P. aeruginosa PA14 gacA biofilms; test: Antibiotic susceptibility profiling of biofilms with the MBEC device; format: cell-based, Pseudomonas aeruginosa; conditions: in words
Procedure: Growth Conditions, Sample Analysis and Bio-Assays of Pseudomonas aeruginosa. Biofilm and planktonic growth studies were performed using the Calgary Biofilm Device (CBD) (MBEC™ Biofilm Technologies Limited). Pseudomonas aeruginosa PA14 wild type, gacA and toxA strains were grown for 24 hours in Tryptic Soy Broth (BDH). Biofilm and planktonic populations were sampled at points.
Sampling of biofilm populations was achieved by dislodging a peg from the 96 peg lid, whereas planktonic populations were sampled by removing an aliquot from the growth vessel. Biofilms were disrupted to release individual component cells by sonication. Cell counts of both populations were determined by serial dilution in 0.9% saline and spot plating on Tryptic Soy Agar plates (BDH). Antibiotic susceptibility profiling of P. aeruginosa PA14 wild type, toxA and gacA strains was performed using the MBEC™ device as per manufacturer's instructions (MBEC™ Biofilm Technologies Limited).

[3] = test system: Pseudomonas aeruginosa PA14 gacS^− biofilms; test: Frequency of SCV cells arising from 24-h biofilms exposed for 18 h; format: cell-based; conditions: for Log-survival / No. of survivors / SCV frequency: LB broth, overnight (18 h)
[4] = test system: Pseudomonas aeruginosa PA14 wild-type; test: microbe, parasite or virus in culture; format: cell-based; conditions: Pseudomonas aeruginosa, PA14, 72 h, read-out: MIC72 h
Procedure: (§1) Antimicrobial susceptibility testing. Antibiotic, metal and biocide susceptibility tests were performed. Antimicrobials were arranged into arrays in microtitre plates that typically consisted of serial two-fold dilutions along the rows of wells (the challenge plates). The first and last wells of every row were used as sterility and growth controls, respectively. […] Biofilms were rinsed with PBS (to remove loosely adherent planktonic cells) and inserted into the challenge plates. After exposure, biofilms were rinsed once in PBS and inserted into microtitre plates containing […] of recovery medium in each well (LB broth, 5 mM GSH, 5 mM L-cys, 1% v/v tween-20). These biofilms were disrupted into the recovery medium using a sonicator, and the recovered cells were serially diluted and plated for viable cell counting. Spot plates from these experiments were incubated for a minimum of 36 h at 35° C. before enumeration. Minimum inhibitory concentration (MIC) values were determined by reading the optical density at 650 nm (OD650) of challenge plates after 72 h at 35° C. using a THERMOmax microplate reader with SOFTMAX PRO data analysis software (Molecular Devices, Sunnyvale, Calif.).
(§2) For susceptibility testing, growth-curve data were used to calibrate incubation times to produce biofilms of similar cell density. […] In this model system, planktonic cells shed from the surface of biofilms served as the inoculum for MIC determinations.

[5] = test system: Pseudomonas aeruginosa PA14 SCV; test: MIC determination, planktonic cells shed from biofilms (MBEC P&G device); format: cell-based
Procedure: as §1, §2

[6] = test system: Pseudomonas aeruginosa PA14 gacS^−; test: as above; format: cell-based
Procedure: as §1, §2

[7] = test system: Pseudomonas aeruginosa PA14 wild-type biofilms; format: cell-based
From the text: (§3) Biofilm formation. Biofilms were aerobically cultivated using the MBEC high-throughput (HTP) or Physiology and Genetics (P&G) device (Innovotech, Edmonton, Canada) as described in the manufacturer's instructions and by Ceri et al. (1999). To summarize, the parts of this batch culture apparatus were used in two ways. The top half of the plastic MBEC™-HTP device is a lid with 96 polystyrene pegs that also fits over a standard 96-well microtitre plate. For Biofilm growth, the bottom half was either (1) a corrugated trough that guided 22 mL of inoculum across the pegs when the device was placed on a rocker at 3.5 rocks per min (HTP format), or (2) a microtitre plate with […] of inoculum in each well that was placed on a gyrorotary shaker at 150 r.p.m. (P&G format). For either assay format, the inoculum was prepared to c. 10^7CFU/mL1 of the desired strain and the inoculated device was incubated at 35° C. and 95% relative humidity for the required time. Unless otherwise noted, all experiments utilized the MBEC P&G assay. Pegs from the devices were collected at specific time points for scanning electron microscopy and scanning confocal laser microscopy. Biofilm cell densities were evaluated by breaking pegs from the lid of the MBEC device with sterile pliers, rinsing the peg in PBS, and subsequent viable-cell counting as described above. PBS containing the […] surfactant Tween-20 (1% v/v) was used to assist in recovery of bacteria from the peg surfaces. Pegs were sonicated for 30 min in an Aquasonic model 250HT ultrasonic cleaner (VWR International, Mississauga, Canada). Samples of broth culture were collected at the same time points and viable cell counts were determined in a similar manner.
as §1, §2

[8] = test system: Pseudomonas aeruginosa PA14 SCV biofilms; test: Biofilm susceptibility testing (viable cell counts, log-killing, MBEC99.9); format: cell-based
From the text: as §3, §1, §2

[9] = test system: Pseudomonas aeruginosa PA14 gacS^− biofilms; test: as above; format: cell-based
From the text: as §3, §1, §2

[10] = LB broth, antibiotic 1.25 μg mL^−1, overnight (18 h)
[11] = LB broth, 30 μg mL^−1, 2 h exposure

## CC[C@H]1OC(=O)[C@H](C)[C@@H](O[C@H]2C[C@@](C)(OC)[C@@H](O)[C@H](C)O2)[C@H](C)[C@@H](O[C@@H]2O[C@H](C)C[C@H](N(C)C)[C@H]2O)[C@](C)(O)C[C@@H](C)C(=O)[C@H](C)[C@@H](O)[C@]1(C)O [Erythromicin]
[1]; in words
  selection for SCVs / increase of the frequency of SCV cells compared with growth controls: in no instances
[2]
  biofilm resistance relative to PA14 wild type or toxA control strain: moderately decreased resistance
[3]; antibiotic 5 μg mL^−1
  Log-survival: −0.1 ± 0.3 log10 CFU peg^−1
  No. of survivors: 6.4 ± 0.3 log10 CFU peg^−1
  SCV frequency: 0%

## NCC[C@H](O)C(=O)N[C@@H]1C[C@H](N)[C@@H](O[C@H]2O[C@H](CN)[C@@H](O)[C@H](O)[C@H]2O)[C@H](O)[C@H]1O[C@H]1O[C@H](CO)[C@@H](O)[C@H](N)[C@H]1O [Amikacin]
[1]
  frequency of SCVs (phenotypic variants) among surviving cells, in words: approximately one in five
[3]; antibiotic 5 μg mL^−1
  Log-survival: −2.8 ± 0.6 log10 CFU peg^−1
  No. of survivors: 3.6 ± 0.6 log10 CFU peg^−1
  SCV frequency: 23%

## O=C(N[C@H](CO)[C@H](O)c1ccc([N+](=O)[O-])cc1)C(Cl)Cl [chloramphenicol]
[2]
  biofilm resistance relative to PA14 wild type or toxA control strain: moderately decreased resistance

## CO[C@H]1/C=C/O[C@@]2(C)Oc3c(C)c(O)c4c(O)c(c(/C=N/N5CCN(C)CC5)c(O)c4c3C2=O)NC(=O)/C(C)=C\C=C\[C@H](C)[C@H](O)[C@@H](C)[C@@H](O)[C@@H](C)[C@H](OC(C)=O)[C@@H]1C [Rifampicin]
[3]; 5 μg/mL
  cells killed from the biofilm population: 0.7 log10 cells
[3]; antibiotic 5 μg mL^−1
  Log-survival: −0.7 ± 0.3 log10 CFU peg^−1
  No. of survivors: 5.7 ± 0.3 log10 CFU peg^−1
  SCV frequency: 58%

## C[C@@H](O)[C@H]1C(=O)N2C(C(=O)O)=C(SCCN=CN)C[C@H]12 [Imipenem]
[1]; [10]
  Log-survival: −3.8 ± 1.0 log10 CFU peg^−1
  SCV frequency: 0%
[3]; antibiotic 1.25 μg mL^−1
  No. of survivors: 2.7 ± 1.0 log10 CFU peg^−1

## CCN1CCN(C(=O)N[C@@H](C(=O)N[C@@H]2C(=O)N3[C@@H]2SC(C)(C)[C@@H]3C(=O)O)c2ccccc2)C(=O)C1=O [piperacillin]
[1]
  frequency of SCVs (phenotypic variants) among surviving cells, in words: approximately one in three
[2]
  biofilm resistance relative to PA14 wild type or toxA control strain: moderately decreased resistance

## OO [H2O2, hydrogen peroxide]
[4]
  MIC: 938 µg/mL (≈ 27.6 mM)
[5]; Pseudomonas aeruginosa, PA14, SCV, planktonic cells, OD650 after 72 h at 35° C., mean ± SD of four trials, read-out: MIC72 h
  MIC: 1880 µg/mL (≈ 55.1 mM)
[5]; planktonic PA14 SCV, by comparison, in words
  planktonic cell susceptibility: highly resistant
[6]; Pseudomonas aeruginosa, PA14, gacS^−, planktonic cells, OD650 after 72 h at 35° C., mean ± SD of four trials, read-out: MIC72 h
  MIC: 45 ± 16 µg/mL (≈ 1.32 mM)
[6]; planktonic PA14 gacS, in words
  planktonic cell susceptibility: hypersensitive
[7]
  MBEC99.9: 352 ± 135 ppm
[8]; SCV biofilms, 2 h exposure, 3 log10 reduction in viable cells
  MBEC99.9: 293 ± 203 ppm
[8]; in words
  biofilm survival at subMBEC99.9 concentrations relative to the wild-type strain: increased survival
[9]; [11]
  Log-survival: −3.8 ± 1.1 log10 CFU peg^−1
  No. of survivors: 1.2 ± 1.1 log10 CFU peg^−1
  SCV frequency: 8%
[9]; gacS^− biofilms, 2 h exposure, 3 log10 reduction in viable cells
  MBEC99.9: 22 ± 14 ppm
[9]; susceptibility assays, in words
  proportion of SCV cells recovered from biofilms after exposure, relative to growth controls: increased

From US20080075730A1, “Methods and compositions for treating biofilms” (priority 2003, published 2008)
